Experimental data from ChEMBL document CHEMBL3351435, “New pyrrole derivatives with potent tubulin polymerization inhibiting activity as anticancer agents including hedgehog-dependent cancer” (J Med Chem, 2014).
Calls of active or inactive are those of the source. No cut-off for these calls is given here.

Columns and labels:
HeLa [1] = assay: Cell cycle arrest in human HeLa cells assessed as mitotic rounded-up phenotype at 20 nM by light microscopy; assay type: functional, cell-based
CYP2C9 = CYP2C9 (Homo sapiens, UniProt P11712); assay: Inhibition of human CYP2C9 using sulfaphenazole as substrate at 1 uM; assay type: ADME; conditions: probe sulfaphenazole
HepG2 [2] = assay: Induction of apoptosis in human HepG2 cells at 500 to 2000 nM after 48 hrs by annexin-V/propidium iodide staining-based flow cytometry; assay type: functional, cell-based
[3] = Cytotoxicity against human D283 cells; assay type: functional, cell-based
Mus musculus [4] = assay: Clast in CD-1 mouse at 5 mg/kg, iv; assay type: ADME, organism-based; set-up: dose 5 mg/kg, route intravenous; conditions: in vivo
[5] = Mean residence time in CD-1 mouse at 5 mg/kg, iv; assay type: ADME, organism-based; set-up: dose 5 mg/kg, route intravenous; conditions: in vivo
HeLa [6] = assay: Induction of apoptosis in human HeLa cells assessed as blockage of mitotic progression at 100 nM by annexin V staining-based immunofluorescence microscopy; assay type: functional, cell-based
K562 [7] = assay: Cytotoxicity against human K562 cells assessed as growth inhibition after 96 hrs by Giemsa staining-based light microscopy; assay type: functional, cell-based; conditions: K562, 96 h
NCI/ADR-RES = assay: Cytotoxicity against human NCI/ADR-RES cells assessed as growth inhibition after 96 hrs by Giemsa staining-based light microscopy; assay type: functional, cell-based
Mus musculus [8] = assay: AUC (0 to 480 mins) in CD-1 mouse at 15 mg/kg, po; assay type: ADME, organism-based, Plasma; set-up: time < 8 hr, dose 15 mg/kg, route oral; conditions: in vivo, 8 h
cells = conditions: Homo sapiens, OVCAR-8, 96 h
Description: Cytotoxicity against human OVCAR8 cells assessed as growth inhibition after 96 hrs by Giemsa staining-based light microscopy

HeLa [9] = assay: Cell cycle arrest in human HeLa cells assessed as accumulation at G2/M phase at 100 nM by propidium iodide staining-based flow cytometry; assay type: functional
[10] = Cytotoxicity against human MESSA cells assessed as growth inhibition after 72 hrs by CellTitre-Glo assay; assay type: functional, cell-based; conditions: MES-SA
HeLa [11] = assay: Induction of apoptosis in human HeLa cells assessed as failure of MT elongation at 20 nM by immunofluorescence analysis; assay type: functional, cell-based
RD [12] = assay: Cytotoxicity against human RD cells assessed as growth inhibition after 48 hrs by MTT method; assay type: functional, cell-based
A549 = assay: Cytotoxicity against human A549 cells assessed as growth inhibition after 48 hrs by MTT method; assay type: functional, cell-based; conditions: A549, 48 h
HeLa [13] = assay: Cell cycle arrest in human HeLa cells assessed as reduction in mitotic slippage at 100 nM by annexin V staining-based immunofluorescence microscopy; assay type: functional
[14] = Clearance in CD-1 mouse at 5 mg/kg, iv; assay type: ADME, organism-based; set-up: dose 5 mg/kg, route intravenous; conditions: in vivo
[15] = Initial plasma concentration in CD-1 mouse at 5 mg/kg, iv; assay type: ADME, organism-based; set-up: dose 5 mg/kg, route intravenous
MCF7 = assay: Cytotoxicity against human MCF7 cells after 96 hrs by Giemsa staining-based light microscopy; assay type: functional, cell-based; conditions: MCF7, 96 h
Tubulin = assay: Inhibition of tubulin (unknown origin) polymerization incubated 15 mins prior to GTP addition by spectrophotometry; assay type: protein-complex assay, Homo sapiens
CYP3A4 = CYP3A4 (Homo sapiens, UniProt P08684); assay: Inhibition of human CYP3A4 using ketoconazole as substrate at 1 uM; assay type: ADME; conditions: probe ketoconazole
Mus musculus [16] = assay: Oral bioavailability (last) in CD-1 mouse at 15 mg/kg; assay type: ADME, organism-based; conditions: in vivo
[17] = Cell cycle arrest in human PC3 cells assessed as accumulation at G2/M phase at 500 nM after 24 hrs by propidium iodide staining-based flow cytometry; assay type: functional; conditions: PC-3
HeLa [18] = assay: Induction of apoptosis in human HeLa cells assessed as blockage of mitotic progression at 20 to 100 nM by annexin V staining-based immunofluorescence microscopy; assay type: functional, cell-based
RD [19] = assay: Induction of apoptosis in human RD cells at 500 to 2000 nM after 48 hrs by annexin-V/propidium iodide staining-based flow cytometry; assay type: functional, cell-based
HeLa [20] = assay: Cell cycle arrest in human HeLa cells assessed as accumulation at G2/M phase at 20 nM by propidium iodide staining-based flow cytometry; assay type: functional
HepG2 [21] = assay: Cell cycle arrest in human HepG2 cells assessed as accumulation at G2/M phase at 500 nM after 24 hrs by propidium iodide staining-based flow cytometry; assay type: functional
[22] = AUC infinity in CD-1 mouse at 5 mg/kg, iv; assay type: ADME, organism-based; set-up: time infinity, dose 5 mg/kg, route intravenous; conditions: plasma
CYP2D6 = CYP2D6 (Homo sapiens, UniProt P10635); assay: Inhibition of human CYP2D6 using quinidine as substrate at 1 uM; assay type: ADME; conditions: probe quinidine
RD [23] = assay: Cell cycle arrest in human RD cells at 500 nM incubated for 24 hrs followed by compound washout measured after 24 hrs; assay type: functional, cell-based
CYP2C19 = CYP2C19 (Homo sapiens, UniProt P33261); assay: Inhibition of human CYP2C19 using tranylcypromine as substrate at 1 uM; assay type: ADME; conditions: probe tranylcypromine
[24] = AUC infinity in CD-1 mouse at 15 mg/kg, po; assay type: ADME, organism-based; set-up: time infinity, dose 15 mg/kg, route oral; conditions: plasma
[25] = Inhibition of hedgehog signaling in mouse NIH/3T3 Shh-Light II cells after 48 hrs by luciferase reporter gene assay; assay type: functional, cell-based
[26] = Cell cycle arrest in human PC3 cells assessed as rounded cells at 500 nM after 24 hrs by propidium iodide staining-based flow cytometry; assay type: functional; conditions: PC-3
[27] = Tmax in CD-1 mouse at 15 mg/kg, po; assay type: ADME, organism-based; set-up: dose 15 mg/kg, route oral; conditions: in vivo
HT-29 = assay: Cytotoxicity against human HT-29 cells assessed as growth inhibition after 48 hrs by MTT method; assay type: functional, cell-based; conditions: HT-29, 48 h
RD [28] = assay: Cell cycle arrest in human RD cells assessed as rounded cells at 500 nM after 24 hrs by propidium iodide staining-based flow cytometry; assay type: functional
HeLa [29] = assay: Cytotoxicity against human HeLa cells assessed as growth inhibition after 48 hrs by MTT method; assay type: functional, cell-based
Tubulin (Homo sapiens) = Tubulin (Homo sapiens) (UniProt P68371+Q9H4B7+P0DPH7+P68366+Q13509+Q71U36+P04350+Q3ZCM7+P07437+P68363+Q9BQE3+Q6PEY2+Q13885+Q9BVA1+Q9BUF5); assay: Displacement of [3H]colchicine from tubulin (unknown origin) at 5 uM after 10 mins; assay type: protein-complex assay
[30] = Cmax in CD-1 mouse at 5 mg/kg, iv; assay type: ADME, organism-based; set-up: dose 5 mg/kg, route intravenous; conditions: in vivo
HepG2 [31] = assay: Cell cycle arrest in human HepG2 cells at 500 to 2000 nM incubated for 24 hrs followed by compound washout measured after 24 hrs; assay type: functional, cell-based
[32] = Elimination half life in CD-1 mouse at 15 mg/kg, po; assay type: ADME, organism-based; set-up: dose 15 mg/kg, route oral; conditions: in vivo, read-out: beta t1/2
K562 [33] = assay: Cell cycle arrest in human K562 cells assessed as mitotic index at 10 times IC50 (reference value: […] +/- […]%); assay type: functional
Mus musculus [34] = assay: Tlast in CD-1 mouse at 5 mg/kg, iv; assay type: ADME, organism-based; set-up: dose 5 mg/kg, route intravenous; conditions: in vivo
HeLa [35] = assay: Cell cycle arrest in human HeLa cells by propidium iodide staining-based flow cytometry; assay type: functional
[36] = Cytotoxicity against human PC3 cells assessed as growth inhibition after 48 hrs by MTT method; assay type: functional, cell-based; conditions: PC-3, 48 h
[37] = Cmax in CD-1 mouse at 15 mg/kg, po; assay type: ADME, organism-based; set-up: dose 15 mg/kg, route oral; conditions: in vivo
HepG2 [38] = assay: Cytotoxicity against human HepG2 cells assessed as growth inhibition after 48 hrs by MTT method; assay type: functional, cell-based; conditions: HepG2, 48 h
[39] = Volume of distribution at steady state in CD-1 mouse at 5 mg/kg, iv; assay type: ADME, organism-based; set-up: dose 5 mg/kg, route intravenous; conditions: in vivo, read-out: Vdss

CYP2C9, sequence (P11712 whole entry): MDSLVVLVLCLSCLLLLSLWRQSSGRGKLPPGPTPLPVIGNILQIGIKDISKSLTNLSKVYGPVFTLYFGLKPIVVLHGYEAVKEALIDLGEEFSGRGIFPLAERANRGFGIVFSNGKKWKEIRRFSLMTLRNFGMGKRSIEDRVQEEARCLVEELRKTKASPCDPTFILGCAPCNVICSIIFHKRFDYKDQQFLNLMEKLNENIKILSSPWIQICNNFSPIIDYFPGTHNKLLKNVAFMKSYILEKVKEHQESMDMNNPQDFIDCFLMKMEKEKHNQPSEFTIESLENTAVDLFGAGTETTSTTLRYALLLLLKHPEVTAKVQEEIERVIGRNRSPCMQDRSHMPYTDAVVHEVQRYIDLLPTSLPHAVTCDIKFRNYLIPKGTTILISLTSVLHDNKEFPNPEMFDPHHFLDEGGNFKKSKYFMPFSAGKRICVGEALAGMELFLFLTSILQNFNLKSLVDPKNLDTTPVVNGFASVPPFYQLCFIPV
CYP2D6, sequence (P10635 whole entry): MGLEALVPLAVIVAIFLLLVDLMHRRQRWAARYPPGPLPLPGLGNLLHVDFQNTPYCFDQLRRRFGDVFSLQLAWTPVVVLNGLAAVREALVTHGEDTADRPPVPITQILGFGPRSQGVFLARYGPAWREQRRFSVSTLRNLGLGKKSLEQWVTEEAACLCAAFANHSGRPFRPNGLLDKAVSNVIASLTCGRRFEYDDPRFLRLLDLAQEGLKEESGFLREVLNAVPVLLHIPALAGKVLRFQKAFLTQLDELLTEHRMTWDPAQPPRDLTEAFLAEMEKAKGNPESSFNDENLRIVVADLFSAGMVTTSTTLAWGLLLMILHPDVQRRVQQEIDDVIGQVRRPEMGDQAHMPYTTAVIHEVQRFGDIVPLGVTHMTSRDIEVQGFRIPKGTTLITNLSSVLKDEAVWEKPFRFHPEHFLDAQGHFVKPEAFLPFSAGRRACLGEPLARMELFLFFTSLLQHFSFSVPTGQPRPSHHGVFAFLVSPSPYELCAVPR
CYP2C19, sequence (P33261 whole entry): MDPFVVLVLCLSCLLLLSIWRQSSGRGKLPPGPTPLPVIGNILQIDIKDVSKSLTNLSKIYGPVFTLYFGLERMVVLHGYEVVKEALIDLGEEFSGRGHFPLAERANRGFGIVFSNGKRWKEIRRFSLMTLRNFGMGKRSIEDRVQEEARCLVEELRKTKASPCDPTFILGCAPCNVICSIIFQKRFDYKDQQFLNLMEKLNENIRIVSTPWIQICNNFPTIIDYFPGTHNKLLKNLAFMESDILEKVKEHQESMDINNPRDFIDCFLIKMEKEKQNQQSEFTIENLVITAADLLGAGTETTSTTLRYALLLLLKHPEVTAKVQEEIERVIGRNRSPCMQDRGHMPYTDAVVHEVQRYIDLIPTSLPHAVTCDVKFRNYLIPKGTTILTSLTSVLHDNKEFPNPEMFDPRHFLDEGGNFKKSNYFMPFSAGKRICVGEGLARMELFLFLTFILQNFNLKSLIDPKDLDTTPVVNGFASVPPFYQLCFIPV
CYP3A4, sequence (P08684 whole entry): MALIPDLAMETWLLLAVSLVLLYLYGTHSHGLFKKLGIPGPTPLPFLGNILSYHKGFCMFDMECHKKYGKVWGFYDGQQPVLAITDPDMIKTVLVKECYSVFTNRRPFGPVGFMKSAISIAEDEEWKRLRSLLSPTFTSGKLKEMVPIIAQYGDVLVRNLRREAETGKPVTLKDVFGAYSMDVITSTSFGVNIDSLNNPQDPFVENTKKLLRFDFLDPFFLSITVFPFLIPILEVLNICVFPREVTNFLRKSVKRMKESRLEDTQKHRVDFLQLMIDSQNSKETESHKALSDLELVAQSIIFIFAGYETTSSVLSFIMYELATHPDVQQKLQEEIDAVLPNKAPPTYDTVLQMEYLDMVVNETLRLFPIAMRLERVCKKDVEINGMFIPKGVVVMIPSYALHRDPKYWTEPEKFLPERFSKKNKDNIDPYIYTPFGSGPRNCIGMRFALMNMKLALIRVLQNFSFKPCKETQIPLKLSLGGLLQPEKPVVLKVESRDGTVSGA

COc1cc(C(=O)c2ccn(-c3cccc(N)c3)c2)cc(OC)c1OC
Activity (HeLa [1]): Active | inhibition at 1 µM (CYP2C9): 28.9% | Activity (HepG2 [2]): Active | IC50 [3]: 580 nM | Clast (Mus musculus [4]): 2.3 ng/mL | MRT [5]: 31 min | Activity (HeLa [6]): Active | IC50 (K562 [7]): 20 nM | IC50 (NCI/ADR-RES): 1 nM | AUC (Mus musculus [8]): 79441 ng·min/mL | IC50 (cells): 7 nM | Activity (HeLa [9]): Active | IC50 [10]: 1.8 nM | Activity (HeLa [11]): Active | IC50 (RD [12]): 95.3 nM | IC50 (A549): 10 nM | Activity (HeLa [13]): inactive | clearance [14]: 80.8 mL/min/kg | C0 [15]: 4150 ng/mL | IC50 (MCF7): 15 nM | IC50 (Tubulin): 1400 nM | inhibition at 1 µM (CYP3A4): 12.2% | F (Mus musculus [16]): 49% | Activity [17]: Active | Activity (HeLa [18]): Active | Activity (RD [19]): Active | Activity (HeLa [20]): Active | Activity (HepG2 [21]): Active | AUC(0-inf) [22]: 1030 ng·h/mL | inhibition at 1 µM (CYP2D6): < 5% | Activity (RD [23]): Active | inhibition at 1 µM (CYP2C19): 72.6% | AUC(0-inf) [24]: 1470 ng·h/mL | IC50 [25]: 676 nM | inhibition [25]: Dose-dependent effect | Activity [26]: Active | Tmax [27]: 5 min | IC50 (HT-29): 60 nM | Activity (RD [28]): Active | IC50 (HeLa [29]): 30 nM | inhibition (Tubulin (Homo sapiens)): 86% | Cmax [30]: 3400 ng/mL | Activity (HepG2 [31]): inactive | half-life [32]: 179 min | Activity (K562 [33]): 60% | Tlast (Mus musculus [34]): 480 min | Activity (HeLa [35]): Dose-dependent effect | IC50 [36]: 9.8 nM | Cmax [37]: 1770 ng/mL | IC50 (HepG2 [38]): 274 nM | Vd [39]: 2.7 L/kg
